Reference: patent US8119647B2, “Fused pyrimidineone compounds as TRPV3 modulators” (Glenmark Pharmaceuticals S.A., priority 2008, dated 2012)

Target: T1, Human TRPV3 (Homo sapiens, UniProt Q8NET8)
T1 construct: expressed in transfected cells; host or cells: CHO cells (G-418 selection)
T1 sequence (Q8NET8 1-790): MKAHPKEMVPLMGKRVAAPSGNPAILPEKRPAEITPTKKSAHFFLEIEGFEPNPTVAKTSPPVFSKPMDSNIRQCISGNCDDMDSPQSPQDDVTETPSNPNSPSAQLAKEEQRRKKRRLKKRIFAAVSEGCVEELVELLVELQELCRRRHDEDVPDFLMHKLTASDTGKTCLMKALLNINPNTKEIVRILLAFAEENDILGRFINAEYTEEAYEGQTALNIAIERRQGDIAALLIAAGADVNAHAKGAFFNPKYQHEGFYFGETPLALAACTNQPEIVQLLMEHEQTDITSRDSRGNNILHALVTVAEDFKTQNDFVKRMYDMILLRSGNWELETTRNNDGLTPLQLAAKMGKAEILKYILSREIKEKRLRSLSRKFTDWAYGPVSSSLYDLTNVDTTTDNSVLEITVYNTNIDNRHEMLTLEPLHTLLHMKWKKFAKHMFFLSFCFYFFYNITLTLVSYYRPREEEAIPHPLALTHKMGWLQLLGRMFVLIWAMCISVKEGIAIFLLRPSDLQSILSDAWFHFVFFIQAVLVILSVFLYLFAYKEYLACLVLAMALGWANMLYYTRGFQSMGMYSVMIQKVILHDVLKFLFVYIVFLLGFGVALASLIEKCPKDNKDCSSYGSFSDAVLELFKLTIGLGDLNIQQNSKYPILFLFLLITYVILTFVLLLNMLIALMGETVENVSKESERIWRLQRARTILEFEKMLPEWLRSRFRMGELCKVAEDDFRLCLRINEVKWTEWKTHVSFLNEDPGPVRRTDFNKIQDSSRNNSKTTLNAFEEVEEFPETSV
Experiment: Screening for TRPV3 antagonist using the 45Calcium uptake assay (inhibition of 2-APB induced cellular uptake of radioactive calcium)
Type: cell-based
Details: human TRPV3 expressing CHO cells, 2-APB 500 μM; for inhibition at 1 µM / Percentage inhibition at 1.0 μM: 1.0 μM test compound; for inhibition at 1 µM: read-out: Percentage inhibition at 1.0 μM; for inhibition at 10 µM / Percentage inhibition at 10.0 μM: 10.0 μM test compound; for inhibition at 10 µM: read-out: Percentage inhibition at 10.0 μM; for IC50: class symbols
How it was run: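 CHO cells stably expressing human TRPV3, preincubated 10 min with test compound, then 2-APB (500 μM final) plus 5 μCi/ml 45Ca2+ for 4 min in DMEM/F-12 with 1.8 mM CaCl2; 0.5% DMSO final. Lysate radioactivity by scintillation counting. IC50 by nonlinear regression of % maximal response; % inhibition at 1.0 and 10.0 μM.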

Row | inhibition at 1 µM | inhibition at 10 µM | IC50 | SMILES | Percentage inhibition at 1.0 μM | Percentage inhibition at 10.0 μM
1 | 86.5% | 93.7% | < 250 nM | COc1cccc(/C=C/c2nc3sccn3c(=O)c2-c2ccc(C(F)(F)F)cc2)c1OCC(C)(C)C [Example 29, 7-[(E)-2-(3-Methoxy-2-neopentyloxy)phenyl-1-ethenyl]-6-(4-(trifluoromethyl)phenyl)-5H-[1,3]thiazolo[3,2-a]pyrimidin-5-one] | – | –
2 | 81.7% | 92.8% | < 250 nM | CCCCCOc1c(/C=C/c2nc3sccn3c(=O)c2-c2ccc(OC(F)(F)F)cc2)cccc1OC [Example 55, 7-[(E)-2-(3-Methoxy-2-pentyloxyphenyl)-1-ethenyl]-6-[4-(trifluoromethoxy)phenyl]-5H-[1,3]thiazolo[3,2-a]pyrimidin-5-one] | – | –
3 | 92.8% | 95.9% | < 250 nM | COc1cccc(/C=C/c2nc3sccn3c(=O)c2-c2ccc(OC(F)(F)F)cc2)c1OCC1CC1 [Example 58, 7-{(E)-2-[2-(Cyclopropylmethoxy)-3-methoxyphenyl}-1-ethenyl]-6-(4-trifluoromethoxyphenyl)-5H-[1,3]thiazolo[3,2-a]pyrimidin-5-one] | – | –
4 | 70.7% | 89.9% | 500 to 1000 nM | CCCOc1c(/C=C/c2nc3sccn3c(=O)c2-c2ccc(C(F)(F)F)cc2)cccc1OC [Example 25, 7-[(E)-2-(3-Methoxy-2-propoxyphenyl)-1-ethenyl]-6-[4-(trifluoromethyl)phenyl]-5H-[1,3]thiazolo[3,2-a]pyrimidin-5-one] | – | –
5 | 75.8% | 83.6% | < 250 nM | COc1cccc(/C=C/c2nc3sccn3c(=O)c2-c2ccc(OC(F)(F)F)cc2)c1OC1CCCC1 [Example 68] | – | –
6 | 80% | 95.1% | < 250 nM | COc1cccc(/C=C/c2nc3sccn3c(=O)c2-c2ccc(OC(F)F)cc2)c1OCC1CC1 [Example 48, 7-[(E)-2-(2-Cyclopropylmethoxy-3-methoxyphenyl)-1-ethenyl]-6-(4-difluoromethoxyphenyl]-5H-[1,3]thiazolo[3,2-a]pyrimidin-5-one] | – | –
7 | 16.3% | 21.1% | – | O=c1c(-c2ccc(OC(F)(F)F)cc2)c(/C=C/c2cccc(OCC3CC3)c2OCC2CC2)nc2sccn12 [Example 64, 7-{(E)-2-[2-(Cyclopropylmethoxy)-3-(cyclopropylmethoxy)phenyl]-1-ethenyl}-6-(4-trifluoromethoxyphenyl)-5H-[1,3]thiazolo[3,2-a]pyrimidin-5-one] | – | –
8 | 66.9% | 97.2% | 250 to 500 nM | COCCOc1c(/C=C/c2nc3sccn3c(=O)c2-c2ccc(C(F)(F)F)cc2)cccc1OC [Example 31, {7-[(E)-2-(2-Methoxyethoxy-3-methoxy)phenyl}vinyl]-6-[4-(trifluoromethyl)phenyl]-5H-[1,3]thiazolo[3,2-a]pyrimidin-5-one] | – | –
9 | 61.1% | 80.8% | – | COc1cccc(/C=C/c2nc3sccn3c(=O)c2-c2ccc(OC(F)(F)F)cc2)c1OCC1CCCCC1 [Example 71, 7-[(E)-2-(2-Cyclohexylmethoxy-3-methoxyphenyl)-1-ethenyl]-6-[4-(trifluoromethoxy)phenyl]-5H-[1,3]thiazolo[3,2-a]pyrimidin-5-one] | – | –
10 | 66.5% | 84.7% | 250 to 500 nM | COc1cccc(/C=C/c2nc3sccn3c(=O)c2-c2ccc(C(C)(C)C)cc2)c1OCC1CC1 [Example 4] | – | –
11 | 44% | 88.6% | – | CCOc1ccc(-c2c(/C=C/c3cccc(OC)c3OCC3CC3)nc3sccn3c2=O)cc1 [Example 44, 7-[(E)-2-(2-Cyclopropylmethoxy-3-methoxyphenyl)-1-ethenyl]-6-(4-ethoxyphenyl)-5H-[1,3]thiazolo[3,2-a]pyrimidin-5-one] | – | –
12 | 59.7% | 85.3% | – | COc1cccc(/C=C/c2nc3sccn3c(=O)c2-c2ccc(C(F)(F)F)cc2)c1OCCC(C)C [Example 28, 7-[(E)-2-(2-Isopentyloxy-3-methoxyphenyl)-1-ethenyl]-6-[4-(trifluoromethyl)phenyl]-5H-[1,3]thiazolo[3,2-a]pyrimidin-5-one] | – | –

More lines, now with the values behind:

Row | SMILES | inhibition at 1 µM | inhibition at 10 µM | IC50 | Percentage inhibition at 1.0 μM | Percentage inhibition at 10.0 μM
13 | COc1cccc(/C=C/c2nc3sccn3c(=O)c2-c2ccc(C#N)cc2)c1OCC(C)(C)C [Example 13, 4-{7-[(E)-2-(3-Methoxy-2-neopentyloxyphenyl)-1-ethenyl]-5-oxo-5H-[1,3]thiazolo[3,2-a]pyrimidin-6-yl}benzonitrile] | 91.9% | 95.4% | < 250 nM | – | –
14 | CCCCOc1c(/C=C/c2nc3sccn3c(=O)c2-c2ccc(C#N)cc2)cccc1OC [Example 9, 4-{7-[(E)-2-(2-Butoxy-3-methoxyphenyl)-1-ethenyl]-5-oxo-5H-[1,3]thiazolo[3,2-a]pyrimidin-6-yl}benzonitrile] | 71.6% | 91.9% | 500 to 1000 nM | – | –
15 | CCOCCOc1c(/C=C/c2nc3sc4ccccc4n3c(=O)c2-c2ccc(OC(F)(F)F)cc2)cccc1OC [Example 97, 2-{(E)-2-[(2-Ethoxyethoxy)-3-methoxyphenyl]-1-ethenyl}-3-(4-trifluoromethoxy-phenyl)-4H-benzo[4,5][1,3]thiazolo-[3,2-a]pyrimidin-4-one] | 20.2% | 39.3% | – | – | –
16 | COc1cccc(/C=C/c2nc3sc(Cl)cn3c(=O)c2-c2ccc(N(C)C)cc2)c1OCC(C)C [Example 81, 2-Chloro-6-[4-(dimethylamino)phenyl]-7-[(E)-2-(2-isobutoxy-3-methoxyphenyl)vinyl]-5H-[1,3]thiazolo[3,2-a]pyrimidin-5-one] | 64.3% | 78.5% | 250 to 500 nM | – | –
17 | CCOCCOc1c(/C=C/c2nc3sc4ccccc4n3c(=O)c2-c2ccc(C#N)cc2)cccc1OC [Example 85] | 81.8% | 91.9% | < 250 nM | – | –
18 | COc1cccc(/C=C/c2nc3sccn3c(=O)c2-c2ccc(C#N)cc2)c1OC1CCCC1 [Example 18, 4-{7-[(E)-2-(2-Cyclopentyloxy-3-methoxy)phenyl-1-ethenyl]-5-oxo-5H-[1,3]thiazolo-[3,2-a]pyrimidin-6-yl}benzonitrile] | – | – | < 250 nM | 85.0% | 94.2%
19 | COc1cccc(/C=C/c2nc3sc(Cl)cn3c(=O)c2-c2ccc(N(C)C)cc2)c1OCC(C)(C)C [Example 79, 2-Chloro-6-[4-(dimethylamino)phenyl]-7-[(E)-2-(2-(2,2-dimethylpropoxy)-3-methoxy-phenyl)vinyl]-5H-[1,3]thiazolo[3,2-a]pyrimidin-5-one] | 57.9% | – | – | – | –
20 | COc1cccc(/C=C/c2nc3sccn3c(=O)c2-c2ccc(C(C)=O)cc2)c1OCC1CC1 [Example 5] | – | – | – | 60.3% | 95.1%
21 | COCCOc1c(/C=C/c2nc3sccn3c(=O)c2-c2ccc(C#N)cc2)cccc1OC [Example 14, 4-{7-[(E)-2-(3-Methoxy-2-(2-methoxyethoxy)phenyl]-1-ethenyl}-5-oxo-5H-[1,3]-thiazolo[3,2-a]pyrimidin-6-yl}benzonitrile] | 41% | 88.1% | – | – | –
22 | CCCCOc1c(/C=C/c2nc3sc4ccccc4n3c(=O)c2-c2ccc(C#N)cc2)cccc1OC [Example 87] | – | – | – | 34.44% | 60.79%
23 | COc1cccc(/C=C/c2nc3sccn3c(=O)c2-c2ccc(OC(F)(F)F)cc2)c1OCC(C)C [Example 51, 7-[(E)-2-(2-Isobutoxy-3-methoxyphenyl)-1-ethenyl]-6-[4-(trifluoromethoxy)phenyl]-5H-[1,3]thiazolo[3,2-a]pyrimidin-5-one] | 89.1% | 95.6% | < 250 nM | – | –
24 | COc1cccc(/C=C/c2nc3sccn3c(=O)c2-c2ccc(C#N)cc2)c1OCC(C)C [Example 12, 4-{7-[(E)-2-(2-Isobutoxy-3-methoxyphenyl)-1-ethenyl]-5-oxo-5H-[1,3]thiazolo[3,2-a]-pyrimidin-6-yl}benzonitrile] | 74.7% | 94.8% | < 250 nM | – | –
25 | COc1cccc(/C=C/c2nc3sccn3c(=O)c2-c2ccc(N(C)C)cc2)c1OCC(C)(C)C [Example 42, 6-(4-Dimethylaminophenyl)-7-[(E)-2-(3-methoxy-2-neopentyloxy)phenyl-1-ethenyl]-5H-[1,3]thiazolo[3,2-a]pyrimidin-5-one] | 62.7% | 78.5% | – | – | –
